Assay results from patent publication US8334236B2, “Ring-fused 2-pyridone derivatives and herbicides” (Kumiai Chemical Industry Co., Ltd., priority 2009, dated 2012).

Key:
[1] = tested on: Scirpus juncoides Roxb. var. ohwianus. T. Koyama; experiment: Test Example 1: herbicidal effects in paddy field soil treatment; assay type: in vivo; design: scale not given here; conditions: 1000 g active ingredient per hectare, 21st day after treatment
Protocol: (§1) 100-cm^2 plastic pots were filled with paddy field soil. After puddling and leveling, seeds of Echinochloa oryzicola Vasing, Monochoria vaginalis (Burm. f.) Presl var. plantaginea (Roxb.) Solms-Laub., and Scirpus juncoides Roxb. var. ohwianus. T. Koyama were sowed in the pots, and the soil was waterlogged to a water depth of 3 cm. On the next day, a wettable powder formulation prepared according to Formulation Example 1 was diluted with water, and the dilution was added dropwise onto the water surface. The amount of application was an amount equivalent to 1000 g of the active ingredient per hectare. Thereafter, the plants were grown in a greenhouse, and on the 21st day after the treatment, the herbicidal effects were investigated according to the criteria described in Table 71.
(§2) In addition, comparative compound A, comparative compound B, comparative compound C, and comparative compound D in the tables represent Compound Nos. 70, 34, 32, and 31, respectively, as described in EP-283261. The structural formulas of these compounds are presented below.

[2] = tested on: Monochoria vaginalis (Burm. f.) Presl var. plantaginea (Roxb.) Solms-Laub.; experiment: as above; assay type: in vivo; design: scale not given here; conditions: 1000 g active ingredient per hectare, 21st day after treatment
Protocol: as §1, §2

[3] = tested on: Echinochloa oryzicola Vasing; experiment: as above; assay type: in vivo; design: scale not given here; conditions: 1000 g active ingredient per hectare, 21st day after treatment
Protocol: as §1, §2

Echinochloa crus-galli = experiment: Test Example 2: herbicidal effects in farmland soil treatment; assay type: in vivo; design: scale not given here; conditions: 1000 g active ingredient per hectare, 21st day after treatment
Setaria viridis [4] = experiment: Test Example 3: herbicidal effects in farmland foliar treatment; assay type: in vivo; design: scale not given here; conditions: 1000 g active ingredient per hectare, 14th day after treatment
Setaria viridis [5] = experiment: Test Example 2: herbicidal effects in farmland soil treatment; assay type: in vivo; design: scale not given here; conditions: 1000 g active ingredient per hectare, 21st day after treatment
[6] = tested on: Abutilon theophrasti medicus; experiment: as above; assay type: in vivo; design: scale not given here; conditions: 1000 g active ingredient per hectare, 21st day after treatment
Protocol: (§3) 80-cm^2 plastic pots were filled with farmland soil. Seeds of Abutilon theophrasti medicus and Amaranthus retroflexus were sowed in the pots, and soil was covered. A wettable powder formulation prepared according to Formulation Example 1 was diluted with water, and the dilution was uniformly sprayed on the soil surface with a small sprayer, in an amount equivalent to 1000 liters per hectare, such that 1000 g of the active ingredient was applied per hectare. Thereafter, the plants were grown in a greenhouse, and on the 21st day after the treatment, the herbicidal effects were investigated according to the criteria described in Table 71 shown above.

Amaranthus retroflexus [7] = experiment: as above; assay type: in vivo; design: scale not given here; conditions: 1000 g active ingredient per hectare, 21st day after treatment
Protocol: as §3

[8] = tested on: Echinochloa crus-galli (L.) P. Beauv. var. crus-galli; experiment: Test Example 3: herbicidal effects in farmland foliar treatment; assay type: in vivo; design: scale not given here; conditions: 1000 g active ingredient per hectare, 14th day after treatment
Protocol: (§4) 80-cm^2 plastic pots were filled with farmland soil. Seeds of Echinochloa crus-galli (L.) P. Beauv. var. crus-galli, Abutilon theophrasti medicus, and Amaranthus retroflexus were sowed in the pots, and the plants were grown for two weeks in a greenhouse. A wettable powder formulation prepared according to Formulation Example 1 was diluted with water, and the dilution was applied by foliar treatment by spraying with a small sprayer over the whole plant from the upper part, in an amount equivalent to 1000 liters per hectare, such that 1000 g of the active ingredient was applied per hectare. Thereafter, the plants were grown in a greenhouse, and on the 14th day after the treatment, the herbicidal effects were investigated according to the criteria described in Table 71 shown above.

[9] = tested on: Abutilon theophrasti medicus; experiment: as above; assay type: in vivo; design: scale not given here; conditions: 1000 g active ingredient per hectare, 14th day after treatment
Protocol: as §4

Amaranthus retroflexus [10] = experiment: as above; assay type: in vivo; design: scale not given here; conditions: 1000 g active ingredient per hectare, 14th day after treatment
Protocol: as §4

Structure (SMILES) | Herbicidal effect index, Scirpus juncoides [1] | Herbicidal effect index, Monochoria vaginalis [2] | Herbicidal effect index, Echinochloa oryzicola [3] | melting point [°C] | Herbicidal effect index, Echinochloa crus-galli (Echinochloa crus-galli) | Herbicidal effect index, Setaria viridis (Setaria viridis [4]) | Herbicidal effect index, Setaria viridis (Setaria viridis [5]) | Herbicidal effect index, Abutilon thophrasti [6] | Herbicidal effect index, Amaranthus retroflexus (Amaranthus retroflexus [7]) | Herbicidal effect index, Echinochloa crus-galli [8] | Herbicidal effect index, Abutilon theoprasti [9] | Herbicidal effect index, Amaranthus retroflexus (Amaranthus retroflexus [10])
COc1ccccc1Cn1c(=O)c(C(=O)C2=C(O)CCCC2=O)cc2cccnc21 [II-37, 3-(2-hydroxy-6-oxo-1-cyclohexenecarbonyl)-1-(2-methoxybenzyl)-1,8-naphthyridin-2(1H)-one] | 5 | 5 | 5 | 147 to 150 | – | – | – | – | – | – | – | –
O=C1CCCC(O)=C1C(=O)c1cc2ccc(C(F)F)nc2n(-c2ccccc2)c1=O [II-133] | 5 | 5 | 5 | – | 5 | 5 | 5 | 5 | 5 | 5 | 5 | 5
Cc1ccc2cc(C(=O)C3=C(O)CCCC3=O)c(=O)n(-c3ccccc3)c2n1 [II-123] | 5 | 5 | 5 | – | 5 | 5 | 5 | 5 | 5 | 5 | 5 | 5
CC1(C)CCC(=O)C(C(=O)c2cnc3ccccc3n2)=C1O [Comparative compound D, reference compound] | 2 | 4 | 1 | – | 2 | 0 | 0 | 0 | 3 | 0 | 4 | 1
O=C1CCCC(O)=C1C(=O)c1cnccn1 [Comparative compound A, reference compound] | 0 | 0 | 2 | – | 5 | 0 | 1 | 1 | 0 | 0 | 2 | 1
COc1ccc(-n2c(=O)c(C(=O)C3=C(O)CCCC3=O)cc3cccnc32)cc1 [II-56] | 5 | 5 | 5 | – | 5 | 5 | 5 | 5 | 5 | 5 | 5 | 5
Cn1c(=O)c(C(=O)C2=C(O)CCCC2=O)cc2ccc(C(F)(F)Cl)nc21 [II-141] | 5 | 5 | 5 | – | 3 | 4 | 4 | 5 | 3 | 3 | 5 | 4
CCCn1c(=O)c(C(=O)C2=C(O)CCCC2=O)cc2cccnc21 [II-4] | 5 | 5 | 5 | – | 5 | 4 | 4 | 5 | 5 | 5 | 5 | 5
COc1ccccc1-n1c(=O)c(C(=O)C2=C(O)CCCC2=O)cc2cccnc21 [II-54] | 5 | 5 | 5 | – | 5 | 5 | 5 | 5 | 5 | 5 | 5 | 5
CC(C)c1ccc2cc(C(=O)C3=C(O)CCCC3=O)c(=O)n(-c3ccccc3)c2n1 [II-128] | 5 | 5 | 5 | – | 5 | 5 | 5 | 4 | 5 | 5 | 5 | 5
Cc1ccc(C)c(-n2c(=O)c(C(=O)C3=C(O)CCCC3=O)cc3cccnc32)c1 [II-58] | 5 | 5 | 5 | – | 5 | 5 | 5 | 5 | 5 | 5 | 5 | 5
CC1(C)CC(=O)C(C(=O)c2cnc3ccccc3n2)=C(O)C1 [Comparative compound C, reference compound] | 1 | 2 | 1 | – | 2 | 0 | 0 | 0 | 3 | 0 | 4 | 0
Cc1ccccc1-n1c(=O)c(C(=O)C2=C(O)CCCC2=O)cc2cccnc21 [II-48] | 5 | 5 | 5 | – | 5 | 5 | 5 | 4 | 5 | 5 | 5 | 5
